{
  "source": "paper PMC1322272",
  "about": "(2005)",
  "test_system": "35mer RNA aptamer (RNA, aptamer) GGCGUGUAGGAUAUGCUUCGGCAGAAGGACACGCC",
  "test": "fluorescence quenching of ligand",
  "conditions": "50 mM NaCl, 10 mM MgCl2; 100 mM HEPES, 295 K; 1 µM ligand, RNA titrated",
  "data": [
    {"compound": "Cc1cc2nc3c(=O)[nH]c(=O)nc-3n(C[C@H](O)[C@H](O)[C@H](O)COP(=O)(O)O)c2cc1C", "values": [
      {"measurement": "ΔGassociation", "result": "-37 ± 1", "unit": "kJ/mol"}
    ]}
  ]
}
